This assay concerns TNF-alpha. Put plainly: Example 9 Luminex, LPS hPBMCs: TNF-alpha. Format: cell-based, human. As to the method: Treatment Human PBMCs were pretreated with YY-101, YDE-011 and YDE-043 or reference compound; Xiidra® at various concentration (ranging from 1 nM to 100 uM) for 2 h before stimulation. An equal volume of 0.5% DMSO was used as a vehicle control. Then, the cells were treated with LPS at 5 ug/ml. The supernatants from treated cells were harvested at 24 h and placed in a 96 well for Luminex cytokine & chemokine profiling using a Luminex 200 multiplex assay (Luminex; R&D system, USA).
The main study arm with triplicate wells per group in a 24-well plate: • 1. Blank • 2. PBMC: 0.5% DMSO • 3. PBMC+LPS (5 ug/ml) • 4. PBMC+YY-101 100 uM • 5. PBMC+YY-101 10 uM • 6. PBMC+YY-101 1 uM • 7. PBMC+YY-101 0.1 uM • 8. PBMC+YY-101 0.01 uM • 9. PBMC+LPS (5 ug/ml)+Xiidra®100 uM • 10. PBMC+LPS (5 ug/ml)+Xiidra® 10 uM • 11. PBMC+LPS (5 ug/ml)+Xiidra® 1 uM • 12. PBMC+LPS (5 ug/ml)+Xiidra®0.1 uM • 13. PBMC+LPS (5 ug/ml)+Xiidra®0.01 uM • 14. PBMC+LPS (5 ug/ml)+Xiidra®0.001 uM • 15. PBMC+LPS (5 ug/ml)+YY-101 100 uM • 16. PBMC+LPS (5 ug/ml)+YY-101 10 uM • 17. PBMC+LPS (5 ug/ml)+YY-101 1 uM • 18. PBMC+LPS (5 ug/ml)+YY-101 0.1 uM • 19. PBMC+LPS (5 ug/ml)+YY-101 0.01 uM • 20. PBMC+LPS (5 ug/ml)+YY-101 0.001 uM • 21. PBMC+LPS (5 ug/ml)+YDE-011 100 uM • 22. PBMC+LPS (5 ug/ml)+YDE-011 10 uM • 23. PBMC+LPS (5 ug/ml)+YDE-011 1 uM • 24. PBMC+LPS (5 ug/ml)+YDE-011 0.1 uM • 25. PBMC+LPS (5 ug/ml)+YDE-011 0.01 uM • 26. PBMC+LPS (5 ug/ml)+YDE-011 0.001 uM • 27. PBMC+LPS (5 ug/ml)+YDE-043 100 uM • 28. PBMC+LPS (5 ug/ml)+YDE-043 10 uM • 29. PBMC+LPS (5 ug/ml)+YDE-043 1 uM • 30. PBMC+LPS (5 ug/ml)+YDE-043 0.1 uM • 31. PBMC+LPS (5 ug/ml)+YDE-043 0.01 uM • 32. PBMC+LPS (5 ug/ml)+YDE-043 0.001 uM
Multiplex assay was used to measure 30 cytokines and chemokines. The 1:2, 1:10 and 1:200 diluted cell supernatant and serial dilution of the standard were dispensed into a 96 well plate at 50 ul/well. Then, the pre-mixed cocktail of antibody-coated magnetic beads was dispensed at 50 ul/well and incubated at room temperature for 2 h in a horizontal orbital microplate shaker at 800±500 rpm. The beads were washed using a magnetic device to prevent loss. The biotin-antibody was dispensed in 50 ul of each well and incubated at room temperature for 1 h in a shaker at 800±500 rpm. After washing, streptavidin-PE was added at 50 ul/well and incubated at room temperature for 30 min in a shaker under the same conditions. Finally, after washing, wash buffer (100 ul/well) was added to the plate and incubated in a shaker for 2 min. The Luminex™ 200 setting were set according to the manufacturer's protocol. The data was calculated with a standard five-parameter logistic nonlinear regression analysis of the data (xPonent software 4.2, USA). The levels of cytokine/chemokine are normalized to the live cell counts (1×10^5 cells/mL) and presented as concentrations per mL (pg/mL or ng/mL).

[1] abbreviates: PBMC + LPS(5 ug/ml) + test article 0.001 uM, Mean.
Where [2] appears, read: PBMC + LPS(5 ug/ml) + test article 0.001 uM, individual replicates (1st, 2nd, 3rd).
Setting [3] is: PBMC + LPS(5 ug/ml) + test article 0.01 uM, Mean.
The mark [4] stands for this setting: PBMC + LPS(5 ug/ml) + test article 0.01 uM, individual replicates (1st, 2nd, 3rd).
Where [5] appears, read: PBMC + LPS(5 ug/ml) + test article 0.1 uM, Mean.
Where [6] appears, read: PBMC + LPS(5 ug/ml) + test article 0.1 uM, individual replicates (1st, 2nd, 3rd).
The mark [7] stands for this setting: PBMC + LPS(5 ug/ml) + test article 1 uM, Mean.
Where [8] appears, read: PBMC + LPS(5 ug/ml) + test article 1 uM, individual replicates (1st, 2nd, 3rd).
Where [9] appears, read: PBMC + LPS(5 ug/ml) + test article 10 uM, Mean.
[10] abbreviates: PBMC + LPS(5 ug/ml) + test article 10 uM, individual replicates (1st, 2nd, 3rd).
Where [11] appears, read: PBMC + LPS(5 ug/ml) + test article 100 uM, Mean.
Setting [12] is: PBMC + LPS(5 ug/ml) + test article 100 uM, individual replicates (1st, 2nd, 3rd).

Several values for one entry are separate records, joined by “and”; a condition that tells them apart may be missing. Identical values can stand only once. Where a SMILES comes first, the peptide text is derived from it. [ ]: non-standard residue; d: D form. Hyp = O=C(O)[C@@H]1C[C@@H](O)CN1

As to `CC(C)C[C@H](NC(=O)[C@H](CCC(N)=O)NC(=O)CNC(=O)[C@@H]1C[C@@H](O)CN1)C(=O)NCC(=O)O` [YDE-043] (H-[Hyp]GQLG-OH; N-terminus and C-terminus assumed), the “TNF-alpha Concentration” value under setting [1] is 1325.0 pg/mL; the “TNF-alpha Concentration” value under setting [2] was 1248.3 pg/mL and 1405.1 pg/mL and 1321.4 pg/mL; the “TNF-alpha Concentration” value under setting [3] stood at 1327.4 pg/mL; the “TNF-alpha Concentration” value under setting [4] is 1282.6 pg/mL and 1322.9 pg/mL and 1376.7 pg/mL; the “TNF-alpha Concentration” value under setting [5] turned out to be 1319.0 pg/mL; the “TNF-alpha Concentration” value under setting [6] is 1254.3 pg/mL and 1333.4 pg/mL and 1369.2 pg/mL. Moreover, the “TNF-alpha Concentration” value under setting [7] was 1260.8 pg/mL; the “TNF-alpha Concentration” value under setting [8] was 1330.4 pg/mL and 1136.7 pg/mL and 1315.4 pg/mL; the “TNF-alpha Concentration” value under setting [9] came to 1247.9 pg/mL; the “TNF-alpha Concentration” value under setting [10] was 1175.4 pg/mL and 1249.8 pg/mL and 1318.4 pg/mL; the “TNF-alpha Concentration” value under setting [11] stood at 901.5 pg/mL; the “TNF-alpha Concentration” value under setting [12] was 956.0 pg/mL and 847.0 pg/mL. Also, the TNF-alpha conc/live cell reads like this: under setting [1], 268.4 pg/10^5; under setting [2], 283.7 pg/10^5 and 234.2 pg/10^5 and 287.3 pg/10^5; under setting [3], 253.6 pg/10^5; under setting [4], 285.0 pg/10^5 and 200.4 pg/10^5 and 275.3 pg/10^5; under setting [5], 244.5 pg/10^5; under setting [6], 250.9 pg/10^5 and 238.1 pg/10^5 and 244.5 pg/10^5. Besides, the TNF-alpha conc/live cell runs as follows: under setting [7], 238.1 pg/10^5; under setting [8], 229.4 pg/10^5 and 236.8 pg/10^5 and 248.2 pg/10^5; under setting [9], 231.0 pg/10^5; under setting [10], 226.0 pg/10^5 and 231.4 pg/10^5 and 235.4 pg/10^5; under setting [11], 143.3 pg/10^5; under setting [12], 154.2 pg/10^5 and 132.4 pg/10^5.

Source of the values: patent publication US20230146455A1, “TREATMENT OF INFLAMMATORY DISEASES WITH PEPTIDES AND PHARMACEUTICAL COMPOSITIONS” (Yuyu Pharma, Inc., priority 2020, published 2023).
